Laboratory results from patent US6682763B2, “Skin-beautifying agent, anti-aging agent for the skin, whitening agent and external agent for the skin” (The Nisshin Oil Mills, Ltd., priority 1999, dated 2004).

Test system: B-16 melanoma cells
Settings: mouse, 5 days
Procedure: If the culture system includes a substance capable of inhibiting the melanin-production during the proliferation, the darkening of the cells is suppressed, while the whitening thereof is promoted. Thus, the melanin-production-inhibitory function can be evaluated by comparing the degree of darkening of cells observed when any sample is not added with the degree of whitening of cells observed when the sample is added. In this connection, some of substances may be toxic to the B-16 melanoma cells. To evaluate this cytotoxicity, the cell-survival rate observed when a sample is not added is compared with that observed for the system free of any sample. The melanin-production-inhibitory function is evaluated using the cell-whitening degree and the cell-survival rate in combination.
Cytotoxicity Index=C/D <Formula 4>
In this respect, the term “cell-survival rate” herein used is defined by the following <Formula 5>:
Cell-Survival Rate(%)=(E/F)×100 <Formula 5>
E: Viable cell count observed for the system to which a sample is added.
F: Number of cells observed for the system free of any added test sample. […]
The rate of cell-survival can be calculated according to the aforementioned relation: <Formula 5>.

SMILES: OC[C@H]1O[C@@H](Oc2ccc(O)cc2)[C@H](O)[C@@H](O)[C@@H]1O [arbutin]
- concentration at N.D. (rate of cell survival not more than 10%): 500 ppm
